In patent US20260250320A1, “LIPIDATED PEPTIDE INHIBITORS OF INTERLEUKIN-23 RECEPTOR” (Janssen Pharmaceutica NV, priority 2023, published 2026):
*1 amine or outer side, *2 acyl side, *3 side chain or, on linkers, in order; H or OH if unused. Where a SMILES comes first, the peptide text is derived from it. Bridges are numbered along the chain shown (N, C = ends). Side-chain parts run from the residue outwards. [ ]: non-standard residue; d: D form. The star is where a group is joined. ξ: configuration not given here. Me3N+CH2CH2(OCH2CH2)4CO = C[N+](C)(C)CCOCCOCCOCCOCCC(=O)*; X12 = O=C(O)CCCCCCCCCCCCCCCCC(=O)C[C@@H](CCC(=O)*)C(=O)O; Me3N+(CH2)2O(CH2)2O(CH2)2CO = C[N+](C)(C)CCOCCOCCC(=O)*; X28 = CC(=O)[C@H](CCC(=O)*)NC(=O)CCCCCCCCCCCCCCCCC(=O)O; PEG12 = NCCOCCOCCOCCOCCOCCOCCOCCOCCOCCOCCOCCOCCC(=O)O; Trp(7-Me) = Cc1cccc2c(C[C@H](N)C(=O)O)c[nH]c12; C18 diacid = O=C(O)CCCCCCCCCCCCCCCCC(=O)*; X6 = CN(CC[C@H](N[*:1])C(=O)[*:2])[*:3]; 2Nal = N[C@@H](Cc1ccc2ccccc2c1)C(=O)O; AEF = NCCOc1ccc(C[C@H](N)C(=O)O)cc1; ξγGlu = O=C(O)C(CCC(=O)[*:2])N[*:1]; PEG6 = NCCOCCOCCOCCOCCOCCOCCC(=O)O; X2 = C[N+](C)(C)C[C@@H](CC(=O)O)N*; ξAEF = NCCOc1ccc(CC(N)C(=O)O)cc1; 3Pal = N[C@@H](Cc1cccnc1)C(=O)O; Lys(Me) = CNCCCC[C@H](N)C(=O)O; NMeK = CN[C@@H](CCCCN)C(=O)O; Pen = CC(C)(S)[C@H](N)C(=O)O; Suc = O=C(CCC(=O)[*:2])[*:1]; Thp = NC1(C(=O)O)CCOCC1; X1 = C[N+](C)(C)CCCCC*; AEEA = NCCOCCOCC(=O)O; Sar = CNCC(=O)O

Key:
[1] = system: IL-23-stimulated phosphorylated STAT3 in peripheral blood mononuclear cells (PBMCs); assay: PBMC pSTAT3 Assay; format: cell-based; conditions: PBMCs from healthy donors; 30 min preincubation with peptide; IL-23 5 ng/mL for 30 min; phospho-STAT3 by MSD
Method in brief: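 Healthy-donor PBMCs expanded 4 days on anti-CD3 with 100 ng/mL IL-1β, starved ~4 h in RPMI-0.1% BSA, preincubated 30 min with peptide, then stimulated 30 min at 37 °C with 5 ng/mL IL-23. Lysate pSTAT3 measured by MSD phospho-STAT panel; IC50 derived.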

IL-23R = target: T1, IL-23R (Homo sapiens, UniProt Q5VWK5); assay: IL23R Reporter Assay; format: cell-based; conditions: HEK293 cells containing IL-23R, IL-12Rβ1 and STAT-inducible firefly luciferase reporter; 10 ng/mL IL-23 (EC90); 5 h
T1 construct: HEK293 cells containing IL-23R, IL-12Rβ1 and a firefly luciferase reporter gene driven by a STAT-inducible promoter (Promega); host or cells: HEK293
T1 sequence (Q5VWK5 24-629): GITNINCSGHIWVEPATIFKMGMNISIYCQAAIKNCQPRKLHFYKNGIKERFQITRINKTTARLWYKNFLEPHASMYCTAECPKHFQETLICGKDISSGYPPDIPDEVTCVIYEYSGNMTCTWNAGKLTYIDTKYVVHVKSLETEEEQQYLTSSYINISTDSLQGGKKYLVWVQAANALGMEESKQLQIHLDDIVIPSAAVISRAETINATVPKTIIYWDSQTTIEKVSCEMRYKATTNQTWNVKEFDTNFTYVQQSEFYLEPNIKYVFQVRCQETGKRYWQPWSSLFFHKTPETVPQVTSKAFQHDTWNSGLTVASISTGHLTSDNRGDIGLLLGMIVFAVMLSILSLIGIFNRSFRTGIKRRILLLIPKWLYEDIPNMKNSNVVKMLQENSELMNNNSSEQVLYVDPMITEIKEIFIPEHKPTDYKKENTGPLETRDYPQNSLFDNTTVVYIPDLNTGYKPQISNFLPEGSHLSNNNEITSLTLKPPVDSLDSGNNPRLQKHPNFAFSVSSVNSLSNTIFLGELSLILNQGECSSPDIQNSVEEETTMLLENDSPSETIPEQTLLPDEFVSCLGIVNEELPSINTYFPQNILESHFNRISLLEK
Method in brief: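 HEK293 cells carrying IL-23R, IL-12Rβ1 and a STAT-driven firefly luciferase reporter (4000 cells/well) received compound, then 10 ng/mL IL-23 solution (EC90), and were incubated for 5 h at 37° C. BioGlo luminescence was normalised to IL-23 alone (0%) and 30 μM control inhibitor (100%). IC50 came from a 4-parameter Hill fit.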

SMILES	IC50 [1] [nM]	IC50 (IL-23R) [nM]
CC(=O)[C@H](CCC(=O)NCCOCCOCCOCCOCCOCCOCCC(=O)NCCCC[C@@H](C(N)=O)N(C)C(=O)[C@H](Cc1cccnc1)NC(=O)[C@H](CC(N)=O)NC(=O)[C@H](CCC(=O)O)NC(=O)C1(NC(=O)[C@H](Cc2ccc3ccccc3c2)NC(=O)C(Cc2ccc(OCCN)cc2)NC(=O)[C@H]2NC(=O)[C@H](CCN(C)C(=O)CCOCCOCCOCCOCC[N+](C)(C)C)NC(=O)[C@H](Cc3c[nH]c4c(C)cccc34)NC(=O)[C@H]([C@@H](C)O)NC(=O)[C@H](CC(=O)N(C)C)NC(=O)[C@@H](NC(=O)CCOCCOCCOCCOCC[N+](C)(C)C)C(C)(C)SSC2(C)C)CCOCC1)NC(=O)CCCCCCCCCCCCCCCCC(=O)O (some centres unmarked) [compound 90, cPEG5aCO-Pen(3)-N(N(Me)2)-T-7MeW-Dab(NMecPEG5a)-Pen(3)-AEF-2Nal-THP-E-N-3Pya-NMeK(PEG6gEC18OH)-CONH2] ({Me3N+CH2CH2(OCH2CH2)4CO}-[Pen]D(NMe2)T[Trp(7-Me)][X6](Me3N+CH2CH2(OCH2CH2)4CO)[Pen][ξAEF][2Nal][Thp]EN[3Pal][NMeK]([PEG6-X28])-NH2; disulfide 1-6)	< 0.5	50 to 500
CC(=O)NCCCC[C@@H]1NC(=O)[C@H](Cc2c[nH]c3c(C)cccc23)NC(=O)[C@H]([C@@H](C)O)NC(=O)[C@H](CC(N)=O)NC(=O)[C@@H](NC(=O)[C@@H](CCCCNC(=O)COCCOCCNC(=O)COCCOCCNC(=O)CCC(NC(=O)CCCCCCCCCCCCCCCCC(=O)O)C(=O)O)NC(C)=O)C(C)(C)SSC(C)(C)[C@@H](C(=O)N[C@@H](Cc2ccc(OCCN)cc2)C(=O)N[C@@H](Cc2ccc3ccccc3c2)C(=O)NC2(C(=O)N[C@@H](CCC(=O)O)C(=O)N[C@@H](CC(N)=O)C(=O)N[C@@H](Cc3cccnc3)C(=O)N(C)[C@@H](CCCCNC(=O)CCC(=O)N[C@H](CC(=O)O)C[N+](C)(C)C)C(N)=O)CCOCC2)NC1=O (some centres unmarked) [compound 42, MeCO-k(PEG2PEG2gEC18OH)-Pen(3)-N-T-7MeW-K(Ac)-Pen(3)-AEF-2Nal-THP-E-N-3Pya-NMeK(d)-CONH2] (Ac-[dK]([AEEA-AEEA-ξγGlu-C18 diacid])[Pen]NT[Trp(7-Me)]K(Ac)[Pen][AEF][2Nal][Thp]EN[3Pal][NMeK]([Suc-X2])-NH2; disulfide 2-7)	< 0.5	< 50
CC(=O)N(C)CCCC[C@@H]1NC(=O)[C@H](Cc2c[nH]c3c(C)cccc23)NC(=O)[C@H]([C@@H](C)O)NC(=O)[C@H](CCCCNC(=O)CCOCCOCCOCCOCCOCCOCCOCCOCCOCCOCCOCCOCCNC(=O)CC[C@H](CC(=O)CCCCCCCCCCCCCCCCC(=O)O)C(=O)O)NC(=O)[C@@H](NC(=O)CCOCCOCC[N+](C)(C)C)C(C)(C)SSC(C)(C)[C@@H](C(=O)N[C@@H](Cc2ccc(OCCCCC[N+](C)(C)C)cc2)C(=O)N[C@@H](Cc2ccc3ccccc3c2)C(=O)NC2(C(=O)N[C@@H](CCCCN(C)C(C)=O)C(=O)N[C@@H](CC(N)=O)C(=O)N[C@@H](Cc3cccnc3)C(=O)N(C)CC(=O)N(C)C)CCOCC2)NC1=O [compound 125, cPEG3aCO-Pen(3)-K(PEG12gEC18OH)-T-7MeW-K(NMeAc)-Pen(3)-TMAPF-2Nal-THP-K(NMeAc)-N-3Pya-Sar-CON(Me)2] ({Me3N+(CH2)2O(CH2)2O(CH2)2CO}-[Pen]K([PEG12-X12])T[Trp(7-Me)][Lys(Me)](Ac)[Pen]Y(X1)[2Nal][Thp][Lys(Me)](Ac)N[3Pal][Sar]-NMe2; disulfide 1-6)	0.5 to 5	< 50
CC(=O)NCCCC[C@@H]1NC(=O)[C@H](Cc2c[nH]c3c(C)cccc23)NC(=O)[C@H]([C@@H](C)O)NC(=O)[C@H](CC(N)=O)NC(=O)[C@@H](NC(C)=O)C(C)(C)SSC(C)(C)[C@@H](C(=O)N[C@@H](Cc2ccc(OCCN)cc2)C(=O)N[C@@H](Cc2ccc3ccccc3c2)C(=O)NC2(C(=O)N[C@@H](CCC(=O)O)C(=O)N[C@@H](CC(N)=O)C(=O)N[C@@H](Cc3cccnc3)C(=O)N(C)CC(=O)N[C@@H](CCCCNC(=O)COCCOCCNC(=O)COCCOCCNC(=O)CC[C@H](NC(=O)CCCCCCCCCCCCCCCCC(=O)O)C(=O)O)C(N)=O)CCOCC2)NC1=O [compound 27, MeCO-Pen(3)-N-T-7MeW-K(Ac)-Pen(3)-AEF-2Nal-THP-E-N-3Pya-Sar-K(PEG2PEG2gEC18OH)-CONH2]	< 0.5	< 50
